Article PMC2248166, “Quantitative peptide binding motifs for 19 human and mouse MHC class I molecules derived using positional scanning combinatorial peptide libraries” (Immunome Research, 2008)
pIC50: −log10 of the molar value. Where a SMILES comes first, the peptide text is derived from it.

molecular target: HLA A*3001 (Homo sapiens, UniProt P04439, D140H/D185E/E176W/F33S/G80R/H175R/K168Q/R138E/R41S); assay: biochemical; type: binding
Sequence (P04439 25-365 limits assumed, stated change not applied): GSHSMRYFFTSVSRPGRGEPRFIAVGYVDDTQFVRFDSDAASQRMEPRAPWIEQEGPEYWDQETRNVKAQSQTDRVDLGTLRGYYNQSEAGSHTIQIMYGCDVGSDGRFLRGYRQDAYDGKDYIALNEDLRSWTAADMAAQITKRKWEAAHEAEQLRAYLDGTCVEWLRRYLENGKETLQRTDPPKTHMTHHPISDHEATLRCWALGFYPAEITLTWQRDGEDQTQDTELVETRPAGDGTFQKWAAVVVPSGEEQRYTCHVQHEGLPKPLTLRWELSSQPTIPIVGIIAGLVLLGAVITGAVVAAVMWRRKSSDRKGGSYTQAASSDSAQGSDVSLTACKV

Going from `CC(C)C[C@H](NC(=O)[C@H](CO)NC(=O)[C@H](CCC(N)=O)NC(=O)[C@@H](N)Cc1ccc(O)cc1)C(=O)N[C@@H](CO)C(=O)N1CCC[C@H]1C(=O)N1CCC[C@H]1C(=O)N1CCC[C@H]1C(=O)N[C@@H](Cc1ccccc1)C(=O)O` [3102.1242] (H-YQSLSPPPF-OH) to `CSCC[C@H](NC(=O)[C@H](Cc1ccc(O)cc1)NC(=O)[C@H](CC(N)=O)NC(=O)[C@H](Cc1ccc(O)cc1)NC(=O)[C@H](CO)NC(=O)[C@H](CCCCN)NC(=O)[C@@H](NC(=O)[C@@H](N)CCCCN)C(C)C)C(=O)N[C@@H](CC(C)C)C(=O)O` [3102.0219] (H-KVKSYNYML-OH), the pIC50 rises from 9.30 to 9.74 (0.44 log units).

Going from `CC[C@H](C)[C@H](NC(=O)[C@H](Cc1c[nH]cn1)NC(=O)[C@H](Cc1ccc(O)cc1)NC(=O)[C@H](C)NC(=O)[C@H](CCCCN)NC(=O)[C@@H](N)CCCNC(=N)N)C(=O)N[C@H](C(=O)N[C@@H](Cc1ccccc1)C(=O)N[C@@H](Cc1ccccc1)C(=O)O)[C@@H](C)CC` [3102.1054] (H-RKAYHIIFF-OH) to `CC[C@H](C)[C@H](NC(=O)[C@@H](NC(=O)[C@H](Cc1ccccc1)NC(=O)[C@H](CCSC)NC(=O)[C@@H](NC(=O)[C@@H](N)CCCCN)C(C)C)C(C)C)C(=O)N[C@@H](CCCNC(=N)N)C(=O)N[C@@H](Cc1ccccc1)C(=O)N[C@@H](CCCCN)C(=O)O` [3102.0133] (H-KVMFVIRFK-OH), the pIC50 rises from 8.27 to 9.22 (0.95 log units). The second is the more potent here.

Going from `CC[C@H](C)[C@H](NC(=O)[C@@H]1CCCN1C(=O)[C@H](CC(C)C)NC(=O)[C@H](CCCNC(=N)N)NC(=O)[C@@H](NC(=O)[C@@H](N)CCSC)[C@@H](C)O)C(=O)N[C@@H](CC(C)C)C(=O)N[C@@H](CC(C)C)C(=O)N[C@@H](CC(C)C)C(=O)O` [3102.0104] (H-MTRLPILLL-OH) to `CC[C@H](C)[C@H](N)C(=O)N[C@H](C(=O)N[C@@H](CCCNC(=N)N)C(=O)N[C@@H](CC(=O)O)C(=O)N[C@@H](CO)C(=O)N[C@@H](CCSC)C(=O)N[C@@H](Cc1c[nH]c2ccccc12)C(=O)N[C@@H](Cc1ccc(O)cc1)C(=O)N[C@H](C(=O)O)[C@@H](C)CC)C(C)C` [3102.0125] (H-IVRDSMWYI-OH), the pIC50 falls from 9.19 to 7.70 (1.49 log units).

molecular target: HLA B*1501 (Homo sapiens, UniProt P01889, A329T/A93T/A95T/C349S/D201E/D98Y/E187L/E204Q/E69M/E70A/K202T/N87E/Q94N/R155S/R180W/S121R/S35A/S48A/V306I/V36M/Y140S/Y91S); assay: biochemical; type: binding

`CC[C@H](C)[C@H](NC(=O)[C@H](CC(N)=O)NC(=O)[C@H](C)N)C(=O)N[C@H](C(=O)N[C@@H](Cc1c[nH]cn1)C(=O)N[C@@H](Cc1ccccc1)C(=O)N[C@@H](CS)C(=O)N[C@@H](CO)C(=O)N[C@@H](Cc1ccccc1)C(=O)O)[C@@H](C)O` [3102.1005] (H-ANITHFCSF-OH) and `CC(C)C[C@H](NC(=O)[C@H](Cc1ccc(O)cc1)NC(=O)[C@H](Cc1ccccc1)NC(=O)[C@@H](NC(=O)[C@H](CC(N)=O)NC(=O)[C@H](CCCCN)NC(=O)[C@H](CO)NC(=O)[C@@H](N)CC(C)C)[C@@H](C)O)C(=O)N[C@@H](Cc1ccccc1)C(=O)O` [3102.0952] (H-LSKNTFYLF-OH) are within 0.2 log units of each other in pIC50: 7.82 for the first, 7.85 for the second.

Going from `CC(C)C[C@H](NC(=O)[C@H](CS)NC(=O)[C@H](CO)NC(=O)[C@H](CCCCN)NC(=O)[C@@H](NC(=O)[C@@H](N)CCCCN)C(C)C)C(=O)N[C@@H](CS)C(=O)N[C@@H](CO)C(=O)N[C@@H](Cc1ccccc1)C(=O)O` [3102.0813] (H-KVKSCLCSF-OH) to `CC(C)C[C@H](NC(=O)[C@H](CCCCN)NC(=O)[C@H](CCCCN)NC(=O)[C@H](CC(C)C)NC(=O)[C@@H](N)CC(C)C)C(=O)N[C@@H](CC(N)=O)C(=O)N[C@@H](CO)C(=O)N[C@@H](Cc1ccccc1)C(=O)NCC(=O)O` [3102.1020] (H-LLKKLNSFG-OH), the pIC50 falls from 7.77 to 7.35 (0.42 log units).

`CC(C)C[C@H](NC(=O)[C@@H](N)CC(C)C)C(=O)N[C@@H](CO)C(=O)N[C@@H](CCCNC(=N)N)C(=O)N[C@@H](Cc1ccc(O)cc1)C(=O)N[C@@H](CC(=O)O)C(=O)N[C@@H](CCC(=O)O)C(=O)N[C@@H](Cc1c[nH]cn1)C(=O)N[C@@H](Cc1ccccc1)C(=O)O` [3102.0976] (H-LLSRYDEHF-OH) and `CC[C@H](C)[C@H](NC(=O)[C@H](CCC(=O)O)NC(=O)[C@@H](N)CO)C(=O)N[C@@H](CCCNC(=N)N)C(=O)N[C@@H](Cc1c[nH]c2ccccc12)C(=O)N[C@@H](CCC(=O)O)C(=O)N[C@@H](CCC(=O)O)C(=O)N[C@@H](CO)C(=O)N[C@@H](Cc1ccccc1)C(=O)O` [3102.0890] (H-SEIRWEESF-OH) are within 0.2 log units of each other in pIC50: 7.27 for the first, 7.33 for the second.

Compared with `CSCC[C@H](NC(=O)[C@H](CCC(N)=O)NC(=O)[C@H](CO)NC(=O)[C@H](CO)NC(=O)[C@@H](N)CC(C)C)C(=O)N[C@H](C(=O)N[C@@H](CO)C(=O)N[C@H](C(=O)N[C@@H](Cc1ccccc1)C(=O)O)[C@@H](C)O)[C@@H](C)O` [3102.0940] (H-LSSQMTSTF-OH), `CC[C@H](C)[C@H](NC(=O)[C@@H](N)CO)C(=O)N[C@@H](CCCCN)C(=O)N[C@@H](CC(N)=O)C(=O)N[C@@H](CC(C)C)C(=O)N[C@H](C(=O)N[C@@H](CO)C(=O)N[C@@H](CCC(N)=O)C(=O)N[C@@H](Cc1ccccc1)C(=O)O)C(C)C` [3102.0951] (H-SIKNLVSQF-OH) is 0.80 log units lower in pIC50: 8.40 for the first, 7.60 for the second.

Compared with `CC[C@H](C)[C@H](NC(=O)[C@H](Cc1ccc(O)cc1)NC(=O)[C@H](CCSC)NC(=O)[C@@H](N)CC(C)C)C(=O)N[C@@H](CC(C)C)C(=O)NCC(=O)N[C@H](C(=O)N[C@@H](Cc1ccc(O)cc1)C(=O)NCC(=O)O)[C@@H](C)O` [3102.0828] (H-LMYILGTYG-OH), `CSCC[C@H](N)C(=O)N[C@@H](CC(C)C)C(=O)N[C@@H](CC(N)=O)C(=O)N[C@H](C(=O)N[C@@H](Cc1ccc(O)cc1)C(=O)NCC(=O)N[C@@H](CCC(=O)O)C(=O)NCC(=O)N[C@@H](Cc1ccccc1)C(=O)O)[C@@H](C)O` [3102.0822] (H-MLNTYGEGF-OH) is 1.43 log units higher in pIC50: 7.21 for the first, 8.64 for the second.

First: CC(C)C[C@H](NC(=O)[C@H](Cc1c[nH]cn1)NC(=O)[C@@H](NC(=O)[C@H](Cc1ccccc1)NC(=O)[C@H](Cc1ccc(O)cc1)NC(=O)[C@H](CS)NC(=O)[C@H](Cc1ccc(O)cc1)NC(=O)[C@H](CC(C)C)NC(=O)CN)[C@@H](C)O)C(=O)O [3102.0832] (H-GLYCYFTHL-OH)
Second: CC[C@H](C)[C@H](NC(=O)[C@@H](N)CC(C)C)C(=O)N[C@@H](CC(N)=O)C(=O)N[C@@H](CC(N)=O)C(=O)NCC(=O)N[C@@H](CCCCN)C(=O)N[C@@H](CS)C(=O)N[C@H](C(=O)N[C@@H](Cc1ccccc1)C(=O)O)[C@@H](C)O [3102.0899] (H-LINNGKCTF-OH)
The pIC50 of the first is 0.95 log units higher: 8.16 for the first, 7.21 for the second.

First: C[C@H](NC(=O)[C@H](CO)NC(=O)[C@@H](N)CCCNC(=N)N)C(=O)N[C@@H](CC(N)=O)C(=O)N[C@H](C(=O)N[C@@H](CO)C(=O)N[C@@H](C)C(=O)N1CCC[C@H]1C(=O)N[C@@H](Cc1ccccc1)C(=O)O)[C@@H](C)O [3102.0964] (H-RSANTSAPF-OH)
Second: CC[C@H](C)[C@H](NC(=O)[C@H](CS)NC(=O)[C@H](CO)NC(=O)[C@@H](NC(=O)[C@H](CS)NC(=O)[C@H](CO)NC(=O)[C@H](CCSC)NC(=O)[C@@H](N)CCSC)[C@@H](C)CC)C(=O)N[C@@H](Cc1ccccc1)C(=O)O [3102.0850] (H-MMSCISCIF-OH)
The pIC50 of the first is 1.05 log units higher: 9.17 for the first, 8.12 for the second. The first is the more potent here.

Work on `CC[C@H](C)[C@H](NC(=O)[C@H](Cc1c[nH]cn1)NC(=O)[C@H](CC(=O)O)NC(=O)[C@H](Cc1c[nH]cn1)NC(=O)[C@H](CO)NC(=O)[C@@H](N)Cc1ccccc1)C(=O)NCC(=O)N[C@@H](Cc1c[nH]cn1)C(=O)NCC(=O)O` [3102.0897] (H-FSHDHIGHG-OH) yielded a pIC50 of 7.49.

molecular target: HLA B*1503 (Homo sapiens, UniProt P01889, A329T/A93T/A95T/C349S/D201E/D98Y/E187L/E204Q/K202T/N87E/Q94N/R155S/R180L/S121R/S35A/V306I/V36M/Y140S/Y91S); assay: biochemical; type: binding

Compared with `CC(C)C[C@H](NC(=O)[C@H](CO)NC(=O)[C@H](CCC(N)=O)NC(=O)[C@@H](N)Cc1ccc(O)cc1)C(=O)N[C@@H](CO)C(=O)N1CCC[C@H]1C(=O)N1CCC[C@H]1C(=O)N1CCC[C@H]1C(=O)N[C@@H](Cc1ccccc1)C(=O)O` [3102.1242] (H-YQSLSPPPF-OH), `CC[C@H](C)[C@H](NC(=O)[C@H](Cc1c[nH]cn1)NC(=O)[C@H](Cc1ccc(O)cc1)NC(=O)[C@H](C)NC(=O)[C@H](CCCCN)NC(=O)[C@@H](N)CCCNC(=N)N)C(=O)N[C@H](C(=O)N[C@@H](Cc1ccccc1)C(=O)N[C@@H](Cc1ccccc1)C(=O)O)[C@@H](C)CC` [3102.1054] (H-RKAYHIIFF-OH) is 0.22 log units higher in pIC50: 10.21 for the first, 10.43 for the second. The second is the more potent here.
